In assay [1] the test system is mouse platelets. Kind of assay: Mouse platelets stored in 30% plasma and 70% INTERSOL solution at RT for 48 h, flow cytometry. The assay is classed as cell-based. The protocol:
The supernatant, containing platelet rich plasma, buffy coat, and some RBC, was removed and centrifuged at 300×g for 6 min to obtain platelet rich plasma (PRP). […] About 70% of the supernatant (105 μL) was removed from each tube, and replaced with equal volume of […]® solution. […] The volumes in tubes lacking one or both additives were evened out with PBS. The platelet suspensions were stored at RT for 48 h on a shaker and analyzed by flow cytometry.
On the technique in general: Flow cytometry measures light scatter and fluorescence of single cells or particles in a stream.

In another assay the test system is human platelets. Kind of assay: Human platelets stored in plasma at RT, P-selectin surface expression (CD62P-FITC). It is filed as cell-based. To be noted: stored in plasma with DANA.
Assay [2] deals with mouse platelets. The assay is described as follows: Surface receptor loss of mouse platelets stored at room temperature. The assay is classed as cell-based. To be noted: DANA added during storage.
Assay [3] has as its system platelet GPIbα and GPV receptor surface expression. Kind of assay: Recombinant TACE-mediated GPIbα and GPV shedding from platelets. The assay is classed as cell-based, mouse. The settings on record: GPIbα and GPV; GM6001 100 μM on sialidase-treated platelets.
Assay [4] relates to mouse platelets. The assay is described as follows: In vivo survival of biotinylated platelets after injection of sialidase inhibitor. The settings on record: mice injected with 100 mM DANA vs PBS.
Procedure: These studies then addressed whether inhibition of sialidase activity in vivo has an effect on platelet survival. […] Mice were injected with 100 mM DANA or PBS (phosphate buffered saline) as a control, after in vivo platelet biotinylation.
Another assay concerns bacteria. Kind of assay: Bacterial detection in stored platelet concentrate with SLP reagent, time of color detection (TOCD). The assay is classed as cell-based. To be noted: for time of color detection (TOCD): 1 mM DANA. The protocol:
To increase the formation of planktonic bacteria, thereby improving the sensitivity of the bacterial detection, platelet storage studies were performed in a mixture of PAS (INTERSOL® solution) and plasma (80:20). Many bacterial detection methods are available. We used SLP Reagent Set (297-51501, Wako Chemicals USA), containing silkworm larvae plasma (SLP) and […] (DOPA), reconstituted according to manufacturer's instruction and stored as 100 μL aliquots at -80° C. When a sample is mixed with SLP reagent, peptidoglycan derived from the cell wall of Gram-positive and Gram-negative bacteria in the sample initiates a series of reactions including activation of multiple serine proteases called prophenoloxidase (proPO) cascade. The phenoloxidase (PO) produced in the cascade reactions oxidizes the substrate in the SLP reagent, […] (DOPA), to form melain (dark blue). The bacteria concentration in the test sample is inversely proportional to the onset time of color development: shorter time=higher concentration of bacteria; longer time=lower concentration of bacteria.
One bag of a platelet concentrate was split to two 50-mL Falcon tubes, PGE1 was added. After centrifugation at 900×g for 10 min, 80% of the supernatant (PPP) (relative to the total volume) was removed, and replaced with equal volume of platelet protection solution. The platelet was thoroughly re-suspended. The platelet suspensions were pooled and split to 4 aliquots in 15-mL Falcon tubes. DANA (1 mM) in PBS was added to two tubes while only PBS was added to the other tubes. One pair of samples with and without DANA was stored at 4° C. The second pair was kept at RT (22° C.-24° C.). Aliquots of 1.0 mL were removed on Day 0 and Day 9, and immediately pelleted (5 min, 15,800×g). […]
The pellet containing both platelets and bacteria, recovered from 1-mL aliquots sampled at different time points, was re-suspended in 100 μL of 0.1 M NaOH, and heated for 10 min at 70° C. […] The samples were left on the bench, and color development was monitored. The time of color detection (TOCD) was recorded.

Assay [5] concerns Serratia marcescens strain (ATCC #43862). The assay is described as follows: Planktonic growth of S. marcescens in 96-well PVC plate. To be noted: 1 mM DANA, 48 h, 30% plasma in PAS, 30% PC in PAS or 100% plasma. It is filed as cell-based. The protocol: Serratia marcescens strain (ATCC #43862) was purchased from American Type Culture Collection (Manassas, Va.). Cells were grown in brain-heart infusion broth (ATCC media 3) at 37° C. and 250 rpm. Frozen stocks were prepared from overnight culture and stored at −80° C. in brain-heart infusion broth containing 15% glycerol by volume. To prepare the seed culture, the cryostock of Serratia marcescens was inoculated into 3 mL of brain-heart infusion broth with a cotton swab and incubated at 37° C. with agitation at 250 rpm for 6 h. The cell density was determined at 600 nm on a dual wavelength spectrometer and diluted to 0.5 McFarland Standard (1.5×10^8 cells/mL) with sterile PBS. Ten μL of the diluted culture was inoculated into 140 μL of 30% plasma in PAS, 30% PC by volume in PAS or 100% plasma, supplemented with or without 1 mM DANA, in the wells of 96-well PVC plates (Corning Biosciences). For each media, six replicates were performed. Ten μL of PBS was inoculated into the control wells. The microtiter plates were then sealed with sterile porous film (VWR) and placed on a platform shaker. The cultures were incubated for 48 h with gentle shaking (˜100 rpm). […] The crystal violet retained by the biofilm was eluted with 200 μL of dimethyl sulfoxide (DMSO) or 30% acetic acid, and read at 595 nm.

Assay [6] deals with mouse platelets. Kind of assay: Sialidase-induced β-galactose exposure on platelets, lectin binding by flow cytometry. The assay is classed as cell-based. To be noted: mouse platelets, 5 mU α2-3,6,8,9-sialidase.

Entries after “also recorded” stand apart in the source; their conditions may differ.

As to `CC(=O)NC1C(O)C=C(C(=O)O)OC1C(O)C(O)CO` (stereo not drawn) [DANA], the “platelet events within the platelet gate” value in the assay on mouse platelets [1] (48 h at RT, DANA 1 mM and/or glucose 10 mM (57% in INTERSOL alone)) is reported as “over 80%”. In addition, in the assay on mouse platelets [1] (compared with glucose alone), the “state of platelet population by forward and side scatter” value was “more resting platelet population”. Moreover, in the assay with human platelets, the “exposure of P-selectin” value is listed as “significantly prevented the exposure of P-selectin” and the α-granule release entry is recorded as “inhibited α-granule release”. The “GPIbα and GPV receptor expression of room temperature stored mouse platelets” value in the assay on mouse platelets [2] is given as “preserved receptors expression; also recorded: inhibited”. In assay [3], the “receptor shedding by rTACE in presence of inhibitor” value is given as “completely prevented”. Further, the “survival of biotinylated platelets in vivo” value with mouse platelets [4] is reported as “increases mouse platelet life span in vivo; also recorded: increases the survival”. Also, the “bacterial growth in RT stored platelet samples” value in the assay with bacteria (DANA, compared with 4° C. storage) was “inhibits bacterial growth as effectively as 4° C.-storage”. In the assay with bacteria (Day 9, stored at 4° C.), the “time of color detection (TOCD)” value is on record as about 50 min. The “time of color detection (TOCD)” value in the assay on bacteria (Day 9, stored at RT, INTERSOL/plasma 80:20 (15 min without DANA)) is about 34 min. Besides, the “bacterial growth (planktonic cell density)” value in assay [5] is listed as “inhibited the bacterial growth under all conditions”. In addition, the “β-galactose exposure induced by sialidase in presence of inhibitor” value in the assay on mouse platelets [6] is given as “completely inhibited; also recorded: inhibits the exposure of β-galactose”.

The values are drawn from US9788539B2, “Platelet protection solution having beta-galactosidase and sialidase inhibitors” (Velico Medical, Inc., priority 2011, dated 2017).
